According to US20050009924A1 (priority 2003, published 2005):
Where a name gives a salt, the structure may show the parent alone.

Key:
[1] = tested on: iron-induced lipid peroxidation in rat brain homogenates; assay: Iron-induced lipid peroxidation in rat brain homogenates; settings: for Inhibition of LP(10 mM): mean percent inhibition (Table 3); for LP (%) (10 mM): relative percentage of inhibition (Table 1)
[2] = tested on: hTERT-BJ1 cells; assay: MTT relative viability, PhTERT-SEAP (hTERT-BJ1) cells; settings: PhTERT-SEAP (hTERT-BJ1)
[3] = tested on: hepatitis B virus transfected hepatoma cell lines, HepG 2.2.15 cells; assay: Cytotoxicity assay, 2.2.15 cells; type: cell-based, human; settings: 48 h of drug exposure
[4] = tested on: transcriptional activity of hTERT; assay: SEAP reporter assay of hTERT expression, PhTERT-SEAP (H1299); type: cell-based, human; settings: PhTERT-SEAP(hTERT-H1299)
Summary of the method: (§1)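 Cells seeded, grown 24 h at 37° C, refed, then exposed to varying drug amounts for another 24 h. Collected media heated 65° C for 10 min to kill heat-labile phosphatases, mixed with equal SEAP buffer (2 M diethanolamine, 1 mM MgCl2, 20 mM […]) plus 12 mM final p-nitrophenyl phosphate; rate of A405 increase measured.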

[5] = tested on: human hepatoma G2 cells; assay: Cytotoxicity assay (XTT colorimetric), Hep G2; type: cell-based; settings: 48 h of drug exposure
[6] = tested on: transcriptional activity of hTERT; assay: SEAP reporter assay of hTERT expression, PhTERT-SEAP (hTERT-BJ1); type: cell-based, human; settings: PhTERT-SEAP (hTERT-BJ1)
Summary of the method: as §1

[7] = tested on: rat glioma C6 cells; assay: Cytotoxicity assay (XTT colorimetric), C6 cells; type: cell-based; settings: 48 h of drug exposure
[8] = tested on: non-small-cell lung cancer cells H1299; assay: MTT relative viability, PhTERT-SEAP (H1299) cells; settings: PhTERT-SEAP(hTERT-H1299)

## Cc1c(C)c2c(c(C)c1O)CC[C@@](C)(CCC[C@H](C)CCC[C@H](C)CCCC(C)C)O2 [(+)−α-Tocopherol, reference compound]
[1]; 0.01 mM
  Inhibition (%): 0%
[1]; 0.1 mM
  Inhibition (%): 0%
[1]; 1 mM
  Inhibition (%): 55 ± 1.7%
[1]; 10 mM
  Inhibition (%): 100%
  Inhibition of LP(10 mM): >100%
  LP (%) (10 mM): >100%

## O=C1c2cccc(O)c2C(=O)c2cccc(O)c21 [Anthrarufin, 1,5-dihydroxyanthraquinone, reference compound]
[1]; 10 mM
  Inhibition of LP(10 mM): −36 ± 1.1^ %
  LP (%) (10 mM): −36 ± 1.9%

## O=C1O[C@H]([C@@H](O)CO)C(O)=C1O [Ascorbic acid, reference compound]
[1]; 0.01 mM
  Inhibition (%): 10 ± 0.6%
[1]; 0.1 mM
  Inhibition (%): 32 ± 1.2%
[1]; 1 mM
  Inhibition (%): 75 ± 1.5%
[1]; 10 mM
  Inhibition (%): 100%
  Inhibition of LP(10 mM): >100%
  LP (%) (10 mM): >100%

## O=C1c2c(O)ccc(O)c2C(=O)c2c(NCCNCCO)ccc(NCCNCCO)c21 [Mitoxantrone-HCl, reference compound]
[1]; 0.01 mM
  Inhibition (%): 5 ± 0.3%
[1]; 0.1 mM
  Inhibition (%): 22 ± 3.5%
[1]; 1 mM
  Inhibition (%): 54 ± 2.1%
[1]; 10 mM
  Inhibition (%): 100%

## O=C(Nc1ccc(NC(=O)c2ccco2)c2c1C(=O)c1ccccc1C2=O)c1ccco1 [VI24, 1,4-Bis(2-furoylamido)-9,10-anthracenedione]
[2]; 2.3 μM
  Relative MTT viability (%): 91 ± 9.5%
[2]; 23 μM
  Relative MTT viability (%): 69 ± 10.7%
[2]; 234 μM
  Relative MTT viability (%): 72 ± 11.3%
[3]
  IC50: > 20 µM
[4]; 2.3 μM
  Relative SEAP activity (%): 99 ± 7.8%
  SEAP/vibility: 0.99
[4]; 23 μM
  Relative SEAP activity (%): 97 ± 4.6%
  SEAP/vibility: 1.30
[4]; 234 μM
  Relative SEAP activity (%): 90 ± 2.9%
  SEAP/vibility: 2.83
[5]
  IC50: > 20 µM
[6]; 2.3 μM
  Relative SEAP activity (%): 39 ± 7.8%
  SEAP/vibility: 0.43
[6]; 23 μM
  Relative SEAP activity (%): 45 ± 11.0%
  SEAP/vibility: 0.65
[6]; 234 μM
  Relative SEAP activity (%): 37 ± 15.0%
  SEAP/vibility: 0.51
[7]
  IC50: > 20 µM
[8]; 2.3 μM
  Relative MTT viability (%): 101 ± 6.0%
[8]; 23 μM
  Relative MTT viability (%): 75 ± 3.9%
[8]; 234 μM
  Relative MTT viability (%): 32 ± 5.1%

## Cc1cc(C(=O)Nc2ccc(NC(=O)c3cc(C)oc3C)c3c2C(=O)c2ccccc2C3=O)c(C)o1 [VI26, 1,4-Bis(2,5-dimethylfuran-3-carbonylamido)-9,10-anthracenedione]
[2]; 2.0 μM
  Relative MTT viability (%): 101 ± 6.2%
[2]; 20 μM
  Relative MTT viability (%): 101 ± 5.8%
[2]; 207 μM
  Relative MTT viability (%): 93 ± 7.1%
[3]
  IC50: > 20 µM
[4]; 2.0 μM
  Relative SEAP activity (%): 104 ± 10.8%
  SEAP/vibility: 1.20
[4]; 20 μM
  Relative SEAP activity (%): 103 ± 10.0%
  SEAP/vibility: 1.46
[4]; 207 μM
  Relative SEAP activity (%): 98 ± 10.5%
  SEAP/vibility: 2.10
[5]
  IC50: > 20 µM
[6]; 2.0 μM
  Relative SEAP activity (%): 84 ± 13.3%
  SEAP/vibility: 0.83
[6]; 20 μM
  Relative SEAP activity (%): 79 ± 14.7%
  SEAP/vibility: 0.78
[6]; 207 μM
  Relative SEAP activity (%): 81 ± 16.1%
  SEAP/vibility: 0.88
[7]
  IC50: > 20 µM
[8]; 2.0 μM
  Relative MTT viability (%): 87 ± 4.9%
[8]; 20 μM
  Relative MTT viability (%): 71 ± 2.3%
[8]; 207 μM
  Relative MTT viability (%): 47 ± 2.6%

## O=C(CSc1ccccc1)Nc1ccc(NC(=O)CSc2ccccc2)c2c1C(=O)c1ccccc1C2=O [VI28, 1,4-Bis(phenylthioacetamido)-9,10-anthracenedione]
[2]; 1.8 μM
  Relative MTT viability (%): 115 ± 4.8%
[2]; 18 μM
  Relative MTT viability (%): 105 ± 6.7%
[2]; 185 μM
  Relative MTT viability (%): 60 ± 2.3%
[3]
  IC50: > 20 µM
[4]; 1.8 μM
  Relative SEAP activity (%): 93 ± 3.2%
  SEAP/vibility: 0.89
[4]; 18 μM
  Relative SEAP activity (%): 92 ± 3.5%
  SEAP/vibility: 0.96
[4]; 185 μM
  Relative SEAP activity (%): 80 ± 4.0%
  SEAP/vibility: 1.35
[5]
  IC50: > 20 µM
[6]; 1.8 μM
  Relative SEAP activity (%): 14 ± 14.7%
  SEAP/vibility: 0.12
[6]; 18 μM
  Relative SEAP activity (%): 23 ± 9.5%
  SEAP/vibility: 0.21
[6]; 185 μM
  Relative SEAP activity (%): 7 ± 9.6%
  SEAP/vibility: 0.12
[7]
  IC50: > 20 µM
[8]; 1.8 μM
  Relative MTT viability (%): 104 ± 5.6%
[8]; 18 μM
  Relative MTT viability (%): 96 ± 4.3%
[8]; 185 μM
  Relative MTT viability (%): 59 ± 3.8%

## O=C(Nc1ccc(NC(=O)c2ccc(F)cc2)c2c1C(=O)c1ccccc1C2=O)c1ccc(F)cc1 [VI30, 1,4-Bis(4-fluorobenzoylamido)-9,10-anthracenedione]
[2]; 2.0 μM
  Relative MTT viability (%): 103 ± 9.0%
[2]; 20 μM
  Relative MTT viability (%): 107 ± 3.1%
[2]; 207 μM
  Relative MTT viability (%): 83 ± 5.3%
[3]
  IC50: > 20 µM
[4]; 2.0 μM
  Relative SEAP activity (%): 111 ± 3.6%
  SEAP/vibility: 1.01
[4]; 20 μM
  Relative SEAP activity (%): 107 ± 4.8%
  SEAP/vibility: 1.04
[4]; 207 μM
  Relative SEAP activity (%): 107 ± 9.0%
  SEAP/vibility: 1.20
[5]
  IC50: > 20 µM
[6]; 2.0 μM
  Relative SEAP activity (%): 104 ± 16.3%
  SEAP/vibility: 1.01
[6]; 20 μM
  Relative SEAP activity (%): 101 ± 27.6%
  SEAP/vibility: 0.95
[6]; 207 μM
  Relative SEAP activity (%): 100 ± 14.5%
  SEAP/vibility: 1.20
[7]
  IC50: > 20 µM
[8]; 2.0 μM
  Relative MTT viability (%): 110 ± 5.9%
[8]; 20 μM
  Relative MTT viability (%): 103 ± 6.6%
[8]; 207 μM
  Relative MTT viability (%): 89 ± 6.7%

## O=C(Nc1ccc(NC(=O)c2ccc(C(F)(F)F)cc2)c2c1C(=O)c1ccccc1C2=O)c1ccc(C(F)(F)F)cc1 [VI31, 1,4-Bis(4-trifluorobenzoylamido)-9,10-anthracenedione]
[2]; 1.7 μM
  Relative MTT viability (%): 98 ± 4.4%
[2]; 17 μM
  Relative MTT viability (%): 100 ± 3.4%
[2]; 171 μM
  Relative MTT viability (%): 89 ± 3.6%
[3]
  IC50: > 20 µM
[4]; 1.7 μM
  Relative SEAP activity (%): 110 ± 5.5%
  SEAP/vibility: 1.12
[4]; 17 μM
  Relative SEAP activity (%): 114 ± 5.6%
  SEAP/vibility: 1.14
[4]; 171 μM
  Relative SEAP activity (%): 96 ± 2.1%
  SEAP/vibility: 1.24
[5]
  IC50: > 20 µM
[6]; 1.7 μM
  Relative SEAP activity (%): 100 ± 15.1%
  SEAP/vibility: 1.02
[6]; 17 μM
  Relative SEAP activity (%): 90 ± 16.3%
  SEAP/vibility: 0.90
[6]; 171 μM
  Relative SEAP activity (%): 103 ± 17.6%
  SEAP/vibility: 1.16
[7]
  IC50: > 20 µM
[8]; 1.7 μM
  Relative MTT viability (%): 98 ± 7.8%
[8]; 17 μM
  Relative MTT viability (%): 100 ± 8.9%
[8]; 171 μM
  Relative MTT viability (%): 77 ± 6.7%

## NCC1CC1CCC(=O)Nc1ccc(NC(=O)CCC2CC2CN)c2c1C(=O)c1ccccc1C2=O (stereo not drawn) [VI36, 1,4-Bis[2-(aminomnethyl)cyclopropanepropionamido]-9,10-anthracenedione]
[2]; 2.0 μM
  Relative MTT viability (%): 103 ± 6.4%
[2]; 20 μM
  Relative MTT viability (%): 92 ± 11.4%
[2]; 204 μM
  Relative MTT viability (%): 104 ± 17.4%
[3]
  IC50: 3.46 µM
[4]; 2.0 μM
  Relative SEAP activity (%): 123 ± 12.4%
  SEAP/vibility: 1.16
[4]; 20 μM
  Relative SEAP activity (%): 112 ± 11.5%
  SEAP/vibility: 1.76
[4]; 204 μM
  Relative SEAP activity (%): 80 ± 14.5%
  SEAP/vibility: 2.71
[5]
  IC50: 6.46 µM
[6]; 2.0 μM
  Relative SEAP activity (%): 91 ± 19.4%
  SEAP/vibility: 0.88
[6]; 20 μM
  Relative SEAP activity (%): 95 ± 14.2%
  SEAP/vibility: 1.03
[6]; 204 μM
  Relative SEAP activity (%): 65 ± 15.7%
  SEAP/vibility: 0.63
[7]
  IC50: 2.76 µM
[8]; 2.0 μM
  Relative MTT viability (%): 106 ± 4.1%
[8]; 20 μM
  Relative MTT viability (%): 64 ± 5.1%
[8]; 204 μM
  Relative MTT viability (%): 30 ± 4.7%
